Molecular target: T1, AsPC-1 HiBiT-KRASG12D (Homo sapiens, UniProt P01116, G12D)
T1 construct: insert the HiBiT tag onto the N-terminus of one or more of the endogenous KRAS alleles; endogenous in cells; host or cells: AsPC-1 (ATCC CRL-1682), CRISPR-Cas9 knock-in clone, one tagged allele
Assay: HiBiT degradation assay (G12D), AsPC-1 HiBiT-KRASG12D cells
Assay type: cell-based
Details: 24 hours treatment; for Dmax: ASPC1, AsPC-1 HiBiT-KRASG12D cells, maximum degradation observed; for DC50: AsPC-1 HiBiT-KRASG12D cells, HiBiT luminescence
In short: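 Steps: treat HiBiT-KRASG12D AsPC-1 cells with compound for 24 hours; add alamar blue to 1× and incubate 4 hours to assess viability; wash with PBS; add HiBiT lytic detection reagent, incubate 45 minutes at room temperature; read luminescence. Viability fluorescence is normalized to DMSO wells.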

T1 sequence (P01116 1-188 isoform P01116-2 G12D): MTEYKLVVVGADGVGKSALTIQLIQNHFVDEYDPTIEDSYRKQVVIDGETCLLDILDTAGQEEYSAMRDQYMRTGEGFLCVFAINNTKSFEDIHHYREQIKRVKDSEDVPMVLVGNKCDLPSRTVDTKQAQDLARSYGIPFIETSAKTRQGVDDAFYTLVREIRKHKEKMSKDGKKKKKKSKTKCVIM

Row | SMILES | Dmax [%] | DC50 [nM]
1 | C#Cc1c(F)ccc2cc(O)cc(-c3ncc4c(N5CC6CCC(C5)N6)nc(OCCN5CCC(CC6CN(c7cc([C@@H](C(=O)N8C[C@H](O)C[C@H]8C(=O)N[C@@H](C)c8ccc(-c9scnc9C)cc8)C(C)C)on7)C6)CC5)nc4c3F)c12 [Compound 217, (2S,4R)-1-[(2S)-2-(3-{3-[(1-{2-[(4-{3,8-diazabicyclo[3.2.1]octan-3-yl}-7-(8-ethynyl-7-fluoro-3-hydroxynaphthalen-1-yl)-8-fluoropyrido[4,3-d]pyrimidin-2-yl)oxy]ethyl}piperidin-4-yl)methyl]azetidin-1-yl}-1,2-oxazol-5-yl)-3-methylbutanoyl]-4-hydroxy-N-[(1S)-1-[4-(4-methyl-1,3-thiazol-5-yl)phenyl]ethyl]pyrrolidine-2-carboxamide] | 20 to 60 | 1000 to 3000
2 | C#Cc1c(F)ccc2cc(O)cc(-c3ncc4c(N5CC6CCC(C5)N6)nc(OC[C@@H]5CC[C@@H](COC(=O)N6CCN(c7cc([C@H](C(=O)N8C[C@H](O)C[C@H]8C(=O)N[C@@H](C)c8ccc(-c9scnc9C)cc8)C(C)C)on7)CC6)N5C)nc4c3F)c12 [Compound 59, [(2S,5S)-5-{[(4-{3,8-diazabicyclo[3.2.1]octan-3-yl}-7-(8-ethynyl-7-fluoro-3-hydroxynaphthalen-1-yl)-8-fluoropyrido[4,3-d]pyrimidin-2-yl)oxy]methyl}-1-methylpyrrolidin-2-yl]methyl 4-{5-[(2R)-1-[(2S,4R)-4-hydroxy-2-{[(1S)-1-[4-(4-methyl-1,3-thiazol-5-yl)phenyl]ethyl]carbamoyl}pyrrolidin-1-yl]-3-methyl-1-oxobutan-2-yl]-1,2-oxazol-3-yl}piperazine-1-carboxylate] | 80 to 100 | < 600
3 | CCc1cccc2cc(O)cc(-c3ncc4c(N5CCCCCC5)nc(OC[C@@]56CCCN5[C@H](COC(=O)N5CCN(c7cc([C@H](C(=O)N8C[C@H](O)C[C@H]8C(=O)N[C@@H](C)c8ccc(-c9scnc9C)cc8)C(C)C)on7)[C@H](C)C5)CC6)nc4c3F)c12 [Compound 229, [(3S,8S)-8-[[4-(azepan-1-yl)-7-(8-ethyl-3-hydroxy-1-naphthyl)-8-fluoro-pyrido[4,3-d]pyrimidin-2-yl]oxymethyl]-1,2,3,5,6,7-hexahydropyrrolizin-3-yl]methyl (3R)-4-[5-[(1R)-1-[(2S,4R)-4-hydroxy-2-[[(1S)-1-[4-(4-methylthiazol-5-yl)phenyl]ethyl]carbamoyl]pyrrolidine-1-carbonyl]-2-methyl-propyl]isoxazol-3-yl]-3-methyl-piperazine-1-carboxylate] | 80 to 100 | < 600
4 | CCc1cccc2cc(O)cc(-c3ncc4c(N5CC6CCC(C5)N6)nc(OCCN5CCC(CC6CN(c7cc([C@H](C(=O)N8C[C@H](O)C[C@H]8C(=O)N[C@@H](C)c8ccc(-c9ccnn9C)cc8)C(C)C)on7)C6)CC5)nc4c3F)c12 (single isomer, unassigned) [Compound 264, (2S,4R)-1-[(2R*)-2-(3-{3-[(1-{2-[(4-{3,8-diazabicyclo[3.2.1]octan-3-yl}-7-(8-ethyl-3-hydroxynaphthalen-1-yl)-8-fluoropyrido[4,3-d]pyrimidin-2-yl)oxy]ethyl}piperidin-4-yl)methyl]azetidin-1-yl}-1,2-oxazol-5-yl)-3-methylbutanoyl]-4-hydroxy-N-[(1S)-1-[4-(1-methyl-1H-pyrazol-5-yl)phenyl]ethyl] pyrrolidine-2-carboxamide] | 80 to 100 | < 600
5 | CCc1cccc2cc(O)cc(-c3ncc4c(N5CCCCCC5)nc(OC[C@]56CCCN5[C@H](COC(=O)N5CC(Oc7cc([C@@H](C(=O)N8C[C@H](O)C[C@H]8C(=O)N[C@@H](C)c8ccc(-c9scnc9C)cc8)C(C)C)on7)C5)CC6)nc4c3F)c12 [Compound 305] | 20 to 60 | 600 to 1000

From US20250206732A1, “COMPOUNDS AND METHODS FOR THE TARGETED DEGRADATION OF KRAS” (Arvinas Operations, Inc., priority 2022, published 2025)
